Values after ≈ are worked out from the molar mass of the structure shown. Active and inactive are the calls of the source. The rule behind the calls is not given here.
Columns and labels:
[1] = Solubility of the compound in saline/solutol HS-15 (90/10% V/V) at pH 7.4; assay type: physicochemical
[2] = Solubility of the compound in saline/solutol HS-15 (95/5% V/V) at pH 7.4; assay type: physicochemical
HepG2 [3] = experiment: Antiproliferative activity against human HepG2 cells by MTT assay; assay type: functional, cell-based
Bel-7402 = experiment: Antiproliferative activity against human Bel-7402 cells by MTT assay; assay type: functional, cell-based
[4] = Solubility of the compound in 0.9% NaCl at pH 7.4; assay type: physicochemical
[5] = Solubility of the compound in PBS/DMSO (95/5% V/V) at pH 7.2 to 7.4; assay type: physicochemical
[6] = Solubility of the compound in saline/PEG400 (95/5% V/V) at pH 7.4; assay type: physicochemical
[7] = Solubility of the compound in saline/DMSO/solutol HS-15 (85/5/10% V/V/V) at pH 7.4; assay type: physicochemical
[8] = Stability of the compound in PBS at pH 4 to 9 measured at 25 degree C measured of 7 days by HPLC analysis; assay type: physicochemical; conditions: buffer, pH 4, 168 h; time 7 day
[9] = Stability of the compound at 4 to 60 degree C measured of 5 days by HPLC analysis; assay type: physicochemical; conditions: 120 h; time 5 day
[10] = Stability of the compound in absence of light of 100 lux measured of 3 days by HPLC analysis; assay type: physicochemical; conditions: 72 h; time 3 day
HepG2 [11] = experiment: Antitumor activity against human HepG2 cells xenografted in BALB/c nude mouse assessed as tumor growth inhibition at 45 mg/kg, po qd administered daily for 21 consecutive days and measured every 3 days upto 21 days relative to control; assay type: functional; conditions: HepG2, 504 h, time <= 21 day, read-out: TGI
[12] = Toxicity in BALB/c mouse xenografted with human HepG2 cells assessed as change in body weight at 15 to 45 mg/kg, po qd at 45 mg/kg, po treated daily for 21 days measured every 3 days for 21 days; assay type: organism-based; conditions: in vivo, 504 h, dose 15-45 mg/kg, time 21 day
[13] = Toxicity in BALB/c mouse xenografted with human HepG2 cells assessed as adverse effect at 15 to 45 mg/kg, po qd at 45 mg/kg, po treated daily for 21 days measured every 3 days for 21 days; assay type: organism-based; conditions: in vivo, 504 h, dose 15-45 mg/kg, time 21 day
HepG2 [14] = experiment: Antitumor activity against human HepG2 cells xenografted in BALB/c nude mouse assessed as reduction in tumor weight at 45 mg/kg, po qd administered daily for 21 consecutive days and measured on day 21; assay type: functional, organism-based; conditions: time <= 21.0 day
HepG2 [15] = experiment: Antitumor activity against human HepG2 cells xenografted in BALB/c nude mouse assessed as tumor growth inhibition at 1 mg/kg, iv qd administered daily for 21 consecutive days and measured every 3 days upto 21 days relative to control; assay type: functional; conditions: HepG2, 504 h, time <= 21 day, read-out: TGI
HepG2 [16] = experiment: Antitumor activity against human HepG2 cells xenografted in BALB/c nude mouse assessed as tumor growth inhibition at 9 mg/kg, iv qd administered daily for 21 consecutive days and measured every 3 days upto 21 days relative to control; assay type: functional; conditions: HepG2, 504 h, time <= 21 day, read-out: TGI
[17] = Toxicity in BALB/c mouse xenografted with human HepG2 cells assessed as change in body weight at 1 to 9 mg/kg, iv qd at 45 mg/kg, po treated daily for 21 days measured every 3 days upto 21 days; assay type: organism-based; conditions: in vivo, 504 h, dose 1-9 mg/kg, time < 21 day
[18] = Half life in ICR mouse at 45 mg/kg, po measured after 0.083 to 12 hrs by UPLC-MS/MS analysis; assay type: ADME, organism-based; conditions: in vivo, time 0.083-12 hrs
[19] = AUC (0 to t) in ICR mouse at 45 mg/kg, po measured after 0.083 to 12 hrs by UPLC-MS/MS analysis; assay type: ADME, organism-based; parameters: dose 45 mg/kg, time upper 12 hrs, time lower 0.083 hrs, route po; conditions: in vivo
[20] = MRT (0 to t) in ICR mouse at 45 mg/kg, po measured after 0.083 to 12 hrs by UPLC-MS/MS analysis; assay type: ADME, organism-based; conditions: in vivo, time 0.083-12 hrs
[21] = Oral bioavailability in ICR mouse at 45 mg/kg measured after 0.083 to 12 hrs by UPLC-MS/MS analysis; assay type: ADME, organism-based; conditions: in vivo, time 0.083-12 hrs
[22] = Cmax in ICR mouse at 10 mg/kg, iv measured after 0.083 to 12 hrs by UPLC-MS/MS analysis; assay type: ADME, organism-based; parameters: time 0.083-12 hrs, dose 10 mg/kg, route iv; conditions: in vivo
[23] = MRT (0 to t) in ICR mouse at 10 mg/kg, iv measured after 0.083 to 12 hrs by UPLC-MS/MS analysis; assay type: ADME, organism-based; conditions: in vivo, time 0.083-12 hrs
[24] = Drug distribution in ICR mouse heart at 100 mg/kg, ip measured upto 0.5 hrs by UPLC-MS/MS analysis; assay type: ADME, organism-based; conditions: in vivo
[25] = Drug distribution in ICR mouse kidney at 100 mg/kg, ip measured upto 0.5 hrs by UPLC-MS/MS analysis; assay type: ADME, organism-based; conditions: in vivo
[26] = Drug elimination in ICR mouse heart at 100 mg/kg, ip measured for 1.5 hrs by UPLC-MS/MS analysis; assay type: ADME, organism-based; conditions: in vivo
[27] = Drug elimination in ICR mouse spleen at 100 mg/kg, ip measured for 1.5 hrs by UPLC-MS/MS analysis; assay type: ADME, organism-based; conditions: in vivo
[28] = Drug elimination in ICR mouse duodenum at 100 mg/kg, ip measured for 1.5 hrs by UPLC-MS/MS analysis; assay type: ADME, organism-based; conditions: in vivo
[29] = Toxicity in ICR mouse assessed as mortality at 45 mg/kg, po qd measured for 14 days; assay type: organism-based; conditions: in vivo, 336 h, time 14 day
[30] = Toxicity in ICR mouse assessed as mortality at 100 mg/kg, ip qd measured for 14 days; assay type: organism-based; conditions: in vivo, 336 h, time 14 day
[31] = Hepatotoxicity in ICR mouse assessed as change in blood ALT level at 45 mg/kg, po by biochemical assay; assay type: toxicity, organism-based; conditions: in vivo
[32] = Hepatotoxicity in ICR mouse assessed as change in blood AST level at 45 mg/kg, po by biochemical assay; assay type: toxicity, organism-based; conditions: in vivo
[33] = Renal toxicity in ICR mouse assessed as change in blood UREA level at 45 mg/kg, po by biochemical assay; assay type: organism-based; conditions: in vivo
[34] = Toxicity in ICR mouse assessed as effect on heart at 45 mg/kg, po measured after 2 weeks by H and E staining based analysis; assay type: organism-based; conditions: in vivo, 336 h
[35] = Toxicity in ICR mouse assessed as effect on liver at 45 mg/kg, po measured after 2 weeks by H and E staining based analysis; assay type: organism-based; conditions: in vivo, 336 h
[36] = Toxicity in ICR mouse assessed as effect on spleen at 45 mg/kg, po measured after 2 weeks by H and E staining based analysis; assay type: organism-based; conditions: in vivo, 336 h
[37] = Toxicity in ICR mouse assessed as effect on kidney at 45 mg/kg, po measured after 2 weeks by H and E staining based analysis; assay type: organism-based; conditions: in vivo, 336 h
[38] = target: Voltage-gated inwardly rectifying potassium channel KCNH2 (Homo sapiens, UniProt Q12809); experiment: Inhibtion of hERG transfected in HEK293 cells by whole cell patch clamp method; assay type: toxicity, cell-based
HepG2 [39] = experiment: Antitumor activity against human HepG2 cells xenografted in BALB/c nude mouse assessed as reduction in tumor weight at 1 to 9 mg/kg, iv qd administered daily for 21 consecutive days measured on day 21; assay type: functional, organism-based; conditions: dose 1-9 mg/kg, time 21.0 day

Voltage-gated inwardly rectifying potassium channel KCNH2, sequence (Q12809 whole entry): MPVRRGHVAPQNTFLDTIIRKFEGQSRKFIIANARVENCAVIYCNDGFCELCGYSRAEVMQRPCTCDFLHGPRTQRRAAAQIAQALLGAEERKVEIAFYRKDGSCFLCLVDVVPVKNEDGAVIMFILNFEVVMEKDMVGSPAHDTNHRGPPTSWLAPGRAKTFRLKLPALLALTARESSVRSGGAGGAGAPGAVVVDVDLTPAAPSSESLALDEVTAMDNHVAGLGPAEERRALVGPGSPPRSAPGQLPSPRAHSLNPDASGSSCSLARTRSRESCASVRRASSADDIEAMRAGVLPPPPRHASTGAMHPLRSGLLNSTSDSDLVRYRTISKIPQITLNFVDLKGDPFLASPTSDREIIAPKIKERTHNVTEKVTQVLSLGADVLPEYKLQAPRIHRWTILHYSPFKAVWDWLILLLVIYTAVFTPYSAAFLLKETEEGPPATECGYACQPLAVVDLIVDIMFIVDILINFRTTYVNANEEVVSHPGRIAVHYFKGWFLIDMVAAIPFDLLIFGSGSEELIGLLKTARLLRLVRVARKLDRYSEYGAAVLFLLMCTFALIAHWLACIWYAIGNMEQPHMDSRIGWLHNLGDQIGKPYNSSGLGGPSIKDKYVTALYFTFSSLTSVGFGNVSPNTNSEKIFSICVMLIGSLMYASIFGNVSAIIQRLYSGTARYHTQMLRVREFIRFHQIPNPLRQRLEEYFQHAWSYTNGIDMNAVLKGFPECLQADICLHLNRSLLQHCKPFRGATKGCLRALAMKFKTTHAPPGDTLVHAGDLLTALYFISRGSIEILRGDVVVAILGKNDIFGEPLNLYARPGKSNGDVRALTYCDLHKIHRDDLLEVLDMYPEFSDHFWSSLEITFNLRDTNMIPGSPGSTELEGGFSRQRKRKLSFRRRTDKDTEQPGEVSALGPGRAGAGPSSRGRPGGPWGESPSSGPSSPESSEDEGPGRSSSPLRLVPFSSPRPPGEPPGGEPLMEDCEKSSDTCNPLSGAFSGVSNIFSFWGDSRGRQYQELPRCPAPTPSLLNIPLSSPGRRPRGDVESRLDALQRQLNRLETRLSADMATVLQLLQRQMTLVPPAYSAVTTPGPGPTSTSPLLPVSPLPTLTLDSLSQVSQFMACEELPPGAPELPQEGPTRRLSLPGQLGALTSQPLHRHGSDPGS

SMILES: C[C@H]1CCC/C=C/[C@@H]2C[C@H](OC(=O)OCc3cccnc3)C[C@H]2[C@H](O)/C=C/C(=O)O1
- solubility [1]: 5000 µg/mL (≈ 12000 µM)
- solubility [2]: 1000 µg/mL (≈ 2410 µM)
- IC50 (HepG2 [3]): 100 nM
- IC50 (Bel-7402): 70 nM
- solubility [4]: < 1000 µg/mL
- solubility [5]: < 1000 µg/mL
- solubility [6]: < 1000 µg/mL
- solubility [7]: 15000 µg/mL (≈ 36100 µM)
- Stability [8]: Stable
- Stability [9]: Stable
- Stability [10]: Stable
- inhibition in vivo at 45 mg/kg (HepG2 [11]): 61%
- Activity [12]: Non-Toxic
- Activity [13]: Non-Toxic
- Activity (HepG2 [14]): Active
- inhibition in vivo at 1 mg/kg (HepG2 [15]): 36.6%
- inhibition in vivo at 9 mg/kg (HepG2 [16]): 48.3%
- Activity [17]: Non-Toxic
- half-life [18]: 7.35 h
- AUC(0-t) [19]: 52.9 ng·h/mL
- MRT last [20]: 2.92 h
- bioavailability [21]: 2.26%
- Cmax [22]: 2060 ng/mL
- MRT last [23]: 0.84 h
- Drug uptake [24]: Active
- Drug uptake [25]: Active
- Drug excretion [26]: Active
- Drug excretion [27]: Active
- Drug excretion [28]: Active
- Activity [29]: Non-Toxic
- Activity [30]: Non-Toxic
- Activity [31]: Non-Toxic
- Activity [32]: Non-Toxic
- Activity [33]: Non-Toxic
- Activity [34]: Non-Toxic
- Activity [35]: Non-Toxic
- Activity [36]: Non-Toxic
- Activity [37]: Non-Toxic
- IC50 [38]: > 30000 nM
- Activity (HepG2 [39]): Active
